Source: patent US20250206754A1, “PAN-CHEMOKINE ANTAGONISTS FOR USE IN TREATING CANCER AND IMMUNE DISORDERS” ("Micar Innovation" LTD., priority 2022, published 2025)

What was measured:
CCR7 = target: T1, CCR7 (Homo sapiens, UniProt P32248); experiment: ERK assay, CCR7; type: cell-based
T1 construct: expressed in transfected cells
T1 sequence (P32248 25-378): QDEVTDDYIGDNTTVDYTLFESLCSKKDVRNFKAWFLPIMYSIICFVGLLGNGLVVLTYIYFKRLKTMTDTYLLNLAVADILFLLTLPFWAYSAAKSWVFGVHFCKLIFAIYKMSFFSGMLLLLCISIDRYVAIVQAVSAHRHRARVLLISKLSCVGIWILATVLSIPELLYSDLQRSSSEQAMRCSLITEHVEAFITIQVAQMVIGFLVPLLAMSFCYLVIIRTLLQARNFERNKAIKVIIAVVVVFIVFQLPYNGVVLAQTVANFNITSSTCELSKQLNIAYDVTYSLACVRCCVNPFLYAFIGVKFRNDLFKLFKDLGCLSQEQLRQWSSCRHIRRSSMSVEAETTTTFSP
Description: The Kb values are also retrieved. […] Finally, to make it more clear the second messenger output for Hit1 and confirm the nature of β-arrestin bias GTPγS and ERK assays were also performed. […] Considering that the ERK is directly related to β-arrestin path and binds directly to the arrestin it was concluded that this compound is β-arrestin biased (Table 1 and FIGS. 3A and 3B). Finally, several other potential hits were identified but the activities were in a range of 25-35% at 100 μM concentration and they were discarded in this disclosure.
Current diversity data provide also several additional experimental evidences which are against colloid aggregation activity dependence: • Almost identical steep dose-response curves have been observed for the natural CCL19 and CCL21 agonists. Thus, it seems that this is not unique to Hit 1 case. • Hill coefficient of 1.5 in the ERK experiments and no steep slope (FIG. 3A). Moreover, the ERK dose-response curve looks like a typical single antagonist ligand. • At the same conditions as in the ERK assay the compound was in particular not active in the GTPγS assay up to 100 μM (FIG. 3B). […]

[1] = Maximal tolerated dose (MTD) study in BALB/c mice; type: in vivo; details: daily (QD) oral doses of 30 mg/kg and 150 mg/kg
Description: Design of the in vivo study: A total of 44 female BALB/c mice (12 mice for maximal tolerance dose (MTD) study; 32 mice for efficacy study) were used in the 4T-1-Luc study. The animals were specific pathogen free and approximately 4-5 weeks old at the initiation of the study.
MTD studies: Initially, 10 BALB/c mice were used for the maximal tolerated dose (MTD) response study determination. The mice were randomized based on body weight and were treated with Hit 1 compound with daily (QD) oral doses of 30 mg/kg and 150 mg/kg. Body weight was measured daily.

SMILES: NC(=O)c1ccccc1Oc1ncnc2sc(-c3ccccc3)cc12 [Hit 1, 2-({6-phenylthieno[2,3-d]pyrimidin-4-yl}oxy)benzamide]
- IC50 (CCR7; ERK assay): 18.1 µM
- Hill coefficient (CCR7; ERK experiments): 1.5
- behavior and side effects [1]: did not show abnormal behavior
- body weight loss [1]: A significant (>20%) body lost was not observed
